Legend:
Assay type in all cases: in vivo
[1] = test system: Pseudoperonospora cubensis; experiment: Test A: cucumber downy mildew, spray the day before inoculation (disease rating, 100 = 100% disease control)
In short: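 Cucumber seedlings were sprayed to run-off with compound suspended in acetone/water containing 250 ppm Trem 014 (200 ppm equated to 500 g/ha), then inoculated with P. cubensis spores the next day. Plants were kept 24 h at 20 °C in saturated humidity, then 6 days at 20 °C, before disease rating relative to controls.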

[2] = test system: Plasmopara viticola; experiment: Test B: grape downy mildew, spray 24 h after inoculation (disease rating, 100 = 100% disease control)
In short: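 Grape seedlings were inoculated with Plasmopara viticola and held 24 h saturated at 20 °C, then sprayed to run-off with compound suspension (acetone/water with 250 ppm Trem 014; 200 ppm ≈ 500 g/ha). After 5 days at 20 °C and 24 h saturation, disease was rated from 0 to 100% control versus untreated.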

[3] = test system: Phytophthora infestans; experiment: whole plant or invertebrate; conditions: tomato late blight
[4] = test system: Erysiphe graminis f. sp. tritici; experiment: Test E: wheat powdery mildew, spray the day before inoculation (disease rating, 100 = 100% disease control)
In short: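 Wheat seedlings sprayed to run-off with compound suspended in acetone/water 50/50 with 250 ppm Trem 014 (200 ppm equivalent to 500 g/ha); inoculated next day with Erysiphe graminis f. sp. tritici spore dust. Kept 7 days at 20° C, then rated 0–100% disease control versus controls.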

[5] = test system: Pseudoperonospora cubensis; experiment: Test F: cucumber downy mildew, DMSO/acetone/water test suspension, spray the day before inoculation (disease rating, 100 = 100% disease control)
In short: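 Compounds in DMSO (4% of final volume) suspended in 30/70 acetone/water and sprayed on cucumber seedlings; 250 ppm corresponds to 250 g/ha. Spore inoculation the next day, 24 h saturated humidity at 20° C., then 6 days at 20° C. Rating 0–100 is disease control relative to controls.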

[6] = spray the day before inoculation, compounds without asterisk (not 40 or 10 ppm)
[7] = spray 24 h after inoculation, compounds without asterisk (not 40 or 10 ppm)
[8] = DMSO/acetone/water suspension, spray the day before inoculation, compounds without asterisk
[9] = sprayed the day before inoculation, unmarked compounds (no asterisk, not 40 or 10 ppm)
[10] = sprayed 24 h after inoculation, unmarked compounds (no asterisk, not 40 or 10 ppm)
[11] = sprayed the day before inoculation, 7 days at 20° C., unmarked compounds (no asterisk, not 40 or 10 ppm)
[12] = DMSO/acetone/water test suspension, sprayed the day before inoculation, unmarked compounds (no asterisk)

| Compound | Test A disease rating (100 = 100% disease control, 0 = no disease control) [1, 6] [%] | Test B disease rating (100 = 100% disease control, 0 = no disease control) [2, 7] [%] | Test C disease rating (100 = 100% disease control, 0 = no disease control) [3, 6] [%] | Test E disease rating (100 = 100% disease control, 0 = no disease control) [4, 6] [%] | Test F disease rating (100 = 100% disease control, 0 = no disease control) [5, 8] [%] | Test A disease rating (100 = 100% disease control, 0 = no disease control) [1, 9] | Test B disease rating (100 = 100% disease control, 0 = no disease control) [2, 10] | Test C disease rating (100 = 100% disease control, 0 = no disease control) [3, 9] | Test E disease rating (100 = 100% disease control, 0 = no disease control) [4, 11] | Test F disease rating (100 = 100% disease control, 0 = no disease control) [5, 12] |
| --- | --- | --- | --- | --- | --- | --- | --- | --- | --- | --- |
| Cc1ccc(C)c(CC(=O)N2CCC(c3nc(C(=O)N(C)[C@H](C)c4ccccc4)cs3)CC2)c1 [compound 47] | 100 | 100 | 100 | 96 | 100 |  |  |  |  |  |
| CN(CCc1ccccc1)C(=O)c1csc(C2CCN(C(=O)Cc3ccccc3Cl)CC2)n1 [compound 162] | 0 | 14 | 15 | 42 | 43 |  |  |  |  |  |
| CC(C)(NC(=O)c1csc(C2CCN(C(=O)Cc3ccccc3Cl)CC2)n1)c1ccccc1 [compound 263] |  |  |  |  |  | 92 | 0 | 15 | 0 | 0 |
| O=C(NCCc1ccccc1)c1csc(C2CCN(C(=O)Cc3ccccc3Cl)CC2)n1 [compound 264] |  |  |  |  |  | 96 | 20 | 0 | 68 | 93 |
| O=C(NC1CCCc2ccccc21)c1csc(C2CCN(C(=O)Cc3ccccc3Cl)CC2)n1 (stereo not shown) [compound 266] |  |  |  |  |  | 100 | 6 | 57 | 42 | 86 |
| N#CC(NC(=O)c1csc(C2CCN(C(=O)Cc3cccc(Br)c3)CC2)n1)c1ccccc1 (stereo not shown) [compound 282] |  |  |  |  |  | 55 | 8 | 0 | 0 | 39 |
| N-(2,3-dihydro-2,2-dimethyl-1H-inden-1-yl)-N-methyl-2-[1-[[5-methyl-3-(trifluoromethyl)-1H-pyrazol-1-yl]acetyl]-4-piperidinyl]-4-thiazolecarboxamide [Compound 222] | 100 | 99 | 99 | 21 | 100 |  |  |  |  |  |
| N-(2,3-dihydro-2-methyl-1H-inden-1-yl)-N-methyl-2-[1-[[5-methyl-3-(trifluoromethyl)-1H-pyrazol-1-yl]acetyl]-4-piperidinyl]-4-thiazolecarboxamide [Compound 226] | 100 | 0 | 93 | 0 | 99 |  |  |  |  |  |
| N-methyl-1-[1-[[5-methyl-3-(trifluoromethyl)-1H-pyrazol-1-yl]acetyl]-4-piperidinyl]-N-[(1R)-1,2,3,4-tetrahydro-1-naphthalenyl]-1H-pyrazole-3-carboxamide [Compound 231] | 100 | 80 | 100 | 0 | 96 |  |  |  |  |  |
| N-methyl-2-[1-[[5-methyl-3-(trifluoromethyl)-1H-pyrazol-1-yl]acetyl]-4-piperidinyl]-N-(1,2,3,4-tetrahydro-4-oxo-1-naphthalenyl)-4-thiazolecarboxamide [Compound 211] | 100 | 8 | 99 | 0 | 92 |  |  |  |  |  |
| N-methyl-2-[1-[[5-methyl-3-(trifluoromethyl)-1H-pyrazol-1-yl]acetyl]-4-piperidinyl]-N-[(1R)-1,2,3,4-tetrahydro-1-naphthalenyl]-2H-1,2,3-triazole-4-carboxamide [Compound 232] | 87 | 0 | 95 | 0 | 93 |  |  |  |  |  |
| N-methyl-2-[1-[[5-methyl-3-(trifluoromethyl)-1H-pyrazol-1-yl]acetyl]-4-piperidinyl]-N-[(1R)-1,2,3,4-tetrahydro-1-naphthalenyl]-4-oxazolecarboxamide [Compound 151] | 99 | 31 | 29 | 0 | 93 |  |  |  |  |  |
| N-methyl-2-[1-[[5-methyl-3-(trifluoromethyl)-1H-pyrazol-1-yl]acetyl]-4-piperidinyl]-N-[(1R)-1,2,3,4-tetrahydro-1-naphthalenyl]-4-thiazolecarbothioamide [Compound 289] | 100 | 33 | 98 | 0 | 47 |  |  |  |  |  |
| N-methyl-2-[1-[[5-methyl-3-(trifluoromethyl)-1H-pyrazol-1-yl]acetyl]-4-piperidinyl]-N-[(1R)-1-phenylpropyl]-4-thiazolecarboxamide [Compound 117] | 100 | 67 | 96 | 50 | 86 |  |  |  |  |  |
